Assay results as given in patent publication US5182273A, “Spirocyclic N, O derivatives of cyclotriphosphazenes and their use in therapy” (Pierre Fabre Medicament, priority 1990, dated 1993).

system: mouse L1210 leukemic cells; assay: In vitro cytotoxicity, inhibition of cell growth (cell counter); type: cell-based; conditions: read-out: IC50 (concentration for which 50% inhibition of cell growth is obtained)
Method: The cytotoxic activity in vitro was evaluated by the determination of the IC50 (concentration for which 50% inhibition of cell growth is obtained) on mouse L1210 leukemic cells.
The IC50 is evaluated by means of a cell counter.

SMILES	IC50 [µM]
CN1CCOP12=NP(N1CC1)(N1CC1)=NP(N1CC1)(N1CC1)=N2 (centres unmarked) [Compound 1, 4-methyl-7,7,9,9-tetra-1-aziridinyl-7,7,9,9-tetrahydro-1-oxa-4,6,8,10-tetraaza-5λ^5-7,9-triphosphaspiro-[4,5]-deca-5,7,9-triene]	9
C1COP2(=NP(N3CC3)(N3CC3)=NP(N3CC3)(N3CC3)=N2)N1 (centres unmarked) [Compound 2, 7,7,9,9-Tetra-1-aziridinyl-7,7,9,9-tetrahydro-1-oxa-4,6,8,10-tetraaza-5λ^5,7,9-triphosphaspiro-[4,5]-deca-5,7,9-triene]	8.7
C1CNP2(=NP(N3CC3)(N3CC3)=NP(N3CC3)(N3CC3)=N2)OC1 (centres unmarked) [Compound 3, 2,2,4,4-Tetra-1-aziridinyl-2,2,4,4-tetrahydro-7-oxa-1,3,5,11-tetraaza-2,4,6λ^5-triphosphaspiro-[5,5]-undeca-1,3,5-triene]	2.3
C1CCC(N2CCCOP23=NP(N2CC2)(N2CC2)=NP(N2CC2)(N2CC2)=N3)CC1 (centres unmarked) [Compound 4, 11-Cyclohexyl-2,2,4,4-tetra-1-aziridinyl-2,2,4,4-tetrahydro-7-oxa-1,3,5,11-tetraaza-2,4,6λ^5-triphosphaspiro-[5,5]-undeca-1,3,5-triene]	9.9
c1ccc(CN2CCOP23=NP(N2CC2)(N2CC2)=NP(N2CC2)(N2CC2)=N3)cc1 (centres unmarked) [Compound 5, 4-Phenylmethyl-7,7,9,9-tetra-1-aziridinyl-7,7,9,9-tetrahydro-1-oxa-4,6,8,10-tetraaza-5λ^5,7,9-triphosphaspiro-[4,5]-deca-5,7,9-triene]	5.8
c1ccc(CN2CCCOP23=NP(N2CC2)(N2CC2)=NP(N2CC2)(N2CC2)=N3)cc1 (centres unmarked) [Compound 6, 11-Phenylmethyl-2,2,4,4-tetra-1-aziridinyl-2,2,4,4-tetrahydro-7-oxa-1,3,5,11-tetraaza-2,4,6λ^5-triphosphaspiro-[5,5]-undeca-1,3,5-triene]	5.8
c1ccc(CCN2CCOP23=NP(N2CC2)(N2CC2)=NP(N2CC2)(N2CC2)=N3)cc1 (centres unmarked) [Compound 7, 4-(2-Phenylethyl)-7,7,9,9-tetra-1-aziridinyl-7,7,9,9-tetrahydro-1-oxa-4,6,8,10-tetraaza-5λ^5,7,9-triphosphaspiro-[4,5]-deca-5,7,9-triene]	7.8
c1ccc(CCN2CCCOP23=NP(N2CC2)(N2CC2)=NP(N2CC2)(N2CC2)=N3)cc1 (centres unmarked) [Compound 8, 11-(2-Phenylethyl)-2,2,4,4-tetra-1-aziridinyl-2,2,4,4-tetrahydro-7-oxa-1,3,5,11-tetraaza-2,4,6λ^5-triphosphaspiro-[5,5]-undeca-1,3,5-triene]	6.5
